The values that follow come from patent US20120004282A1, “RNA Interference Mediated Inhibition of the Intercellular Adhesion Molecule 1 (ICAM-1) Gene Expression Using Short Interfering Nucleic Acid (siNA)” (Merck Sharp & Dohme Corp,, priority 2009, published 2012).

[invAb] = inverted abasic unit; m = 2'-O-methyl; r = 2'-OH (RNA); f = 2'-fluoro

The test system of the data set is ICAM-1 mRNA. As to the kind of experiment: ICAM-1 mRNA knock-down in transfected Calu-1 cells (Taqman RT-PCR). The format is cell-based, human. The settings on record: Calu-1 cells, 10 nM siNA, 24 hrs post-transfection, mean ± S.D., relative to non-targeting control. (In general: Quantitative PCR measures a nucleic acid by following its amplification.)
Consider “48700-DC: siNA duplex, ICAM-1 target site 1549 (m); sense B uGccAGuAcuGcuGGucAu TTB; antisense AUGAccAGcAGuAcuGGcAUU (sense UGCCAGUACUGCUGGUCAUTT; antisense AUGACCAGCAGUACUGGCAUU; sense: DNA at AGT, 2'-fluoro at CU, [invAb] at 5' end, 3' end, backbone not given here; antisense: sugars from the 5' end rrrmffmmfmmfmffmmfmmm, backbone not given here)”, for which the “% KD Human” value amounted to 13 ± 5%.

For “48714-DC: siNA duplex, ICAM-1 target site 1089 (m); sense B GGGucGAAGGuGGuucuuc TTB; antisense GAAGAAccAccuucGAcccUU (sense GGGUCGAAGGUGGUUCUUCTT; antisense GAAGAACCACCUUCGACCCUU; sense: DNA at AGT, 2'-fluoro at CU, [invAb] at 5' end, 3' end, backbone not given here; antisense: sugars from the 5' end rrrmmmffmfffffmmfffmm, backbone not given here)”, the “% KD Human” value came out at 48 ± 22%.

Consider “48726-DC: siNA duplex, ICAM-1 target site 1217 (h); sense B GAGAcAcuGcAGAcAGuGA TTB; antisense UCAcuGucuGcAGuGucucUU (sense GAGACACUGCAGACAGUGATT; antisense UCACUGUCUGCAGUGUCUCUU; sense: DNA at AGT, 2'-fluoro at CU, [invAb] at 5' end, 3' end, backbone not given here; antisense: sugars from the 5' end rrrffmfffmfmmfmffffmm, backbone not given here)”, for which the “% KD Human” value is 64 ± 16%.
